Assay results published in patent publication US12252524B2, “GIP/GLP1 co-agonist compounds” (Eli Lilly and Company, priority 2018, dated 2025).
Numbered stars: 1 amine (or outer) side, 2 acyl side, 3 side chain; on linkers, the order of the positions; unused ones are H or OH. Square brackets hold non-standard residues; d marks the D form. Side chains are listed from the residue outwards. Peptide text beside a SMILES is read from it. * marks the point of attachment. C20 diacid = O=C(O)CCCCCCCCCCCCCCCCCCC(=O)*; C18 diacid = O=C(O)CCCCCCCCCCCCCCCCC(=O)*; γGlu = O=C(O)[C@H](CCC(=O)[*:2])N[*:1]; αMeF = C[C@](N)(Cc1ccccc1)C(=O)O; 4Pal = N[C@@H](Cc1ccncc1)C(=O)O; αMeL = CC(C)C[C@](C)(N)C(=O)O; Dab = NCC[C@H](N)C(=O)O; AEEA = NCCOCCOCC(=O)O; Aib = CC(C)(N)C(=O)O

Columns and labels:
human Gcg receptor = target: T1, human Gcg receptor (Homo sapiens, UniProt P47871); experiment: [125I]-Glucagon binding (SPA), human Gcg receptor; conditions: read-out: hGLcgR Ki, nM (SEM, n)
T1 construct: expressed in transfected cells; crude membranes
T1 sequence (P47871 26-477): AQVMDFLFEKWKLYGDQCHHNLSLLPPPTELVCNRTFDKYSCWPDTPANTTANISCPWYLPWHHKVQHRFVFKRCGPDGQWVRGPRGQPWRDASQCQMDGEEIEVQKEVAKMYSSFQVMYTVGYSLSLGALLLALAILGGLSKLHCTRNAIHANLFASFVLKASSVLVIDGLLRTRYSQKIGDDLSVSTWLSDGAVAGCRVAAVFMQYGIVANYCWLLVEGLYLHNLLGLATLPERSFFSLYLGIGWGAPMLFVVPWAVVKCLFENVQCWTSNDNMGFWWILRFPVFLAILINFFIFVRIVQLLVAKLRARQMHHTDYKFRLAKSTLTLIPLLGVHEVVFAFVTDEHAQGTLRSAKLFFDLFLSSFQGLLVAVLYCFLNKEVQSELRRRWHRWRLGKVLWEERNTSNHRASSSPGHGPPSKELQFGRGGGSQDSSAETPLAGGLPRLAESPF
Outline: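 Scintillation counts are taken after membranes and WGA beads incubate and settle for 12 hours at room temperature. Buffer is 25 mM HEPES, pH 7.4, with CaCl2, MgCl2, bacitracin and Tween-20. Ki values, from four-parameter IC50 fits, are geometric means over independent days.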

human GIP receptor = target: T2, human GIP receptor (Homo sapiens, UniProt P48546); experiment: [125I]-GIP binding (SPA), human GIP receptor; conditions: read-out: hGIPR Ki, nM (SEM, n)
T2 construct: expressed in transfected cells; crude membranes
T2 sequence (P48546 22-466): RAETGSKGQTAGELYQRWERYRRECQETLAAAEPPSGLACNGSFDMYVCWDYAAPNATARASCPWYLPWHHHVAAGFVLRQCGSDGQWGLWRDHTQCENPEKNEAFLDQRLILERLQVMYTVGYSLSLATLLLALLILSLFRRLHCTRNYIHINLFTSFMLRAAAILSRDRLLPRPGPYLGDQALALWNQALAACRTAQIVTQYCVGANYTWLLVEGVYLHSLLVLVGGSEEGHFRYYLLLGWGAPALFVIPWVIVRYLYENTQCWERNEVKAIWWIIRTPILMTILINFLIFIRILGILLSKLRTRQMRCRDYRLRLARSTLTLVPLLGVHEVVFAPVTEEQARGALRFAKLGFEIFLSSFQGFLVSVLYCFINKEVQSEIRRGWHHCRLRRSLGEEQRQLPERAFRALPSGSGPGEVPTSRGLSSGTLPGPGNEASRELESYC

[1] = target: human GLP-1 receptor (GLP-1R) (Homo sapiens, UniProt P43220); experiment: cAMP pharmacological functional assay in presence of casein, hGLP-1R; type: cell-based; conditions: HEK293 cells expressing hGLP-1R, 0.1% Casein, geometric mean; read-out: hGLP1R cAMP Rel EC50 nM (SEM, n)
Chain of human GLP-1 receptor (GLP-1R) (P43220 24-463): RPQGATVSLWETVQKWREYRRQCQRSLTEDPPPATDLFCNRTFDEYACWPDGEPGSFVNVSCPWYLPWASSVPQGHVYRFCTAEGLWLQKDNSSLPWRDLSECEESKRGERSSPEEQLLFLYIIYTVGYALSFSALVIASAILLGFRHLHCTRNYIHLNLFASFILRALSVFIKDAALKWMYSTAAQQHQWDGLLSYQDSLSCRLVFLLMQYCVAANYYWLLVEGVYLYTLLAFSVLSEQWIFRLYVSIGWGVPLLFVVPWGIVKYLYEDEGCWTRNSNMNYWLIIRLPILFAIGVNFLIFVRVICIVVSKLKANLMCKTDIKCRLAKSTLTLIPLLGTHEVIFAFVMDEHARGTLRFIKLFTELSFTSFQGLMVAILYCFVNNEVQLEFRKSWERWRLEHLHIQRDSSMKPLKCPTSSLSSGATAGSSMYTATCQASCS

[2] = target: T3, gastric inhibitory peptide receptor (GIPR) (Homo sapiens, UniProt P48546); experiment: cAMP pharmacological functional assay in presence of casein, hGIPR; type: cell-based; conditions: HEK293 cells expressing hGIPR, 0.1% Casein, geometric mean; read-out: hGIPR cAMP Rel EC50 nM (SEM, n)
T3 sequence (P48546 22-466): T2 sequence (P48546 22-466)

human GLP-1R = human GLP-1R (Homo sapiens, UniProt P43220); experiment: [125I]-GLP-1 binding (SPA), human GLP-1 receptor; set-up: expressed in transfected cells; crude membranes; conditions: read-out: hGLP1R Ki, (nM) (SEM, n)
Chain of human GLP-1R (P43220 24-463): as above
Outline: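 Assay buffer: HEPES 25 mM, pH 7.4, CaCl2 2.5 mM, MgCl2 1 mM, with EDTA-free protease inhibitors. Receptor came from crude cell membranes prepared by homogenization and centrifugation at 4° C. IC50s came from four-parameter fits (maximum, minimum, IC50, Hill slope) and were expressed as Ki geometric means with SEM.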

Structure (SMILES)	Ki (human Gcg receptor) [nM]	Ki (human GIP receptor) [nM]	EC50 [1] [nM]	EC50 [2] [nM]	Ki (human GLP-1R) [nM]
CC[C@H](C)[C@H](NC(=O)[C@H](CCCCN)NC(=O)[C@H](CC(=O)O)NC(=O)[C@H](CC(C)C)NC(=O)[C@H](CC(C)C)NC(=O)[C@@H](NC(=O)[C@H](CCCCNC(=O)COCCOCCNC(=O)COCCOCCNC(=O)CC[C@H](NC(=O)CCCCCCCCCCCCCCCCCCC(=O)O)C(=O)O)NC(=O)[C@H](Cc1ccc(O)cc1)NC(=O)[C@H](CC(=O)O)NC(=O)[C@H](CO)NC(=O)[C@@H](NC(=O)[C@H](Cc1ccccc1)NC(=O)[C@@H](NC(=O)CNC(=O)[C@H](CCC(=O)O)NC(=O)C(C)(C)NC(=O)[C@@H](N)Cc1ccc(O)cc1)[C@@H](C)O)[C@@H](C)O)[C@@H](C)CC)C(=O)N[C@@H](C)C(=O)N[C@@H](CCC(N)=O)C(=O)NC(C)(C)C(=O)N[C@@H](C)C(=O)N[C@@H](Cc1ccccc1)C(=O)N[C@H](C(=O)N[C@@H](CCC(=O)O)C(=O)N[C@@H](Cc1ccc(O)cc1)C(=O)N[C@@H](CC(C)C)C(=O)N[C@H](C(=O)N[C@@H](CCC(=O)O)C(=O)NCC(=O)NCC(=O)N1CCC[C@H]1C(=O)N[C@@H](CO)C(=O)N[C@@H](CO)C(=O)NCC(=O)N[C@@H](C)C(=O)N1CCC[C@H]1C(=O)N1CCC[C@H]1C(=O)N1CCC[C@H]1C(=O)N[C@@H](CO)C(N)=O)[C@@H](C)CC)[C@@H](C)CC [Example 24] (H-Y[Aib]EGTFTSDYK([AEEA-AEEA-γGlu-C20 diacid])ILLDKIAQ[Aib]AFIEYLIEGGPSSGAPPPS-NH2)	49.8	0.232	13	0.762	5.04
CC[C@H](C)[C@H](NC(=O)[C@H](CC(C)C)NC(=O)[C@H](Cc1ccc(O)cc1)NC(=O)[C@@H](CCC(=O)O)NC(=O)[C@@H](NC(=O)[C@H](Cc1ccccc1)NC(=O)[C@H](CCC(=O)O)NC(=O)C(C)(C)NC(=O)[C@H](CCC(N)=O)NC(=O)[C@H](C)NC(=O)[C@H](CCCCNC(=O)COCCOCCNC(=O)COCCOCCNC(=O)CC[C@H](NC(=O)CCCCCCCCCCCCCCCCC(=O)O)C(=O)O)NC(=O)[C@H](CCN)NC(=O)[C@H](CC(=O)O)NC(=O)[C@H](CC(C)C)NC(=O)[C@](C)(CC(C)C)NC(=O)[C@@H](NC(=O)[C@H](CO)NC(=O)[C@H](Cc1ccncc1)NC(=O)[C@H](CC(=O)O)NC(=O)[C@H](CO)NC(=O)[C@@H](NC(=O)[C@](C)(Cc1ccccc1)NC(=O)[C@@H](NC(=O)CNC(=O)[C@H](CCC(=O)O)NC(=O)C(C)(C)NC(=O)[C@@H](N)Cc1ccc(O)cc1)[C@@H](C)O)[C@@H](C)O)[C@@H](C)CC)[C@@H](C)CC)C(=O)N[C@@H](CCC(=O)O)C(=O)NCC(=O)NCC(=O)N1CCC[C@H]1C(=O)N[C@@H](CO)C(=O)N[C@@H](CO)C(=O)NCC(=O)N[C@@H](C)C(=O)N1CCC[C@H]1C(=O)N1CCC[C@H]1C(=O)N1CCC[C@H]1C(=O)N[C@@H](CO)C(N)=O [Example 235] (H-Y[Aib]EGT[αMeF]TSD[4Pal]SI[αMeL]LD[Dab]K([AEEA-AEEA-γGlu-C18 diacid])AQ[Aib]EFI[dE]YLIEGGPSSGAPPPS-NH2)	> 1200	0.0581	0.136	0.0372	7.65
CC[C@H](C)[C@H](NC(=O)[C@H](CC(C)C)NC(=O)[C@H](Cc1ccc(O)cc1)NC(=O)[C@H](CCC(=O)O)NC(=O)[C@@H](NC(=O)[C@H](Cc1ccccc1)NC(=O)[C@H](C)NC(=O)C(C)(C)NC(=O)[C@H](CCC(N)=O)NC(=O)[C@H](C)NC(=O)[C@H](CCCCNC(=O)COCCOCCNC(=O)COCCOCCNC(=O)CC[C@H](NC(=O)CCCCCCCCCCCCCCCCCCC(=O)O)C(=O)O)NC(=O)[C@H](CCCCN)NC(=O)[C@H](CC(=O)O)NC(=O)[C@H](CC(C)C)NC(=O)[C@H](CC(C)C)NC(=O)[C@@H](NC(=O)[C@H](CO)NC(=O)[C@H](Cc1ccc(O)cc1)NC(=O)[C@H](CC(=O)O)NC(=O)[C@H](CO)NC(=O)[C@@H](NC(=O)[C@H](Cc1ccccc1)NC(=O)[C@@H](NC(=O)CNC(=O)CC[C@H](NC(=O)C(C)(C)NC(=O)[C@@H](N)Cc1ccc(O)cc1)C(=O)O)[C@@H](C)O)[C@@H](C)O)[C@@H](C)CC)[C@@H](C)CC)C(=O)N[C@@H](CCC(=O)O)C(=O)NCC(=O)NCC(=O)N1CCC[C@H]1C(=O)N[C@@H](CO)C(=O)N[C@@H](CO)C(=O)NCC(=O)N[C@@H](C)C(=O)N1CCC[C@H]1C(=O)N1CCC[C@H]1C(=O)N1CCC[C@H]1C(=O)N[C@@H](CO)C(N)=O [Example 91]	540	1.8	> 5000	19.2	5.23
CC[C@H](C)[C@H](NC(=O)[C@H](CC(C)C)NC(=O)C(C)(Cc1ccc(O)cc1)NC(=O)[C@@H](CCC(=O)O)NC(=O)[C@@H](NC(=O)[C@H](Cc1ccccc1)NC(=O)[C@H](C)NC(=O)C(C)(C)NC(=O)[C@H](CCC(N)=O)NC(=O)[C@H](C)NC(=O)[C@H](CCCCNC(=O)COCCOCCNC(=O)COCCOCCNC(=O)[C@@H](N)CCCCNC(=O)CCCCCCCCCCCCCCCCCCC(=O)O)NC(=O)[C@H](CCCN)NC(=O)[C@H](CC(=O)O)NC(=O)[C@H](CC(C)C)NC(=O)C(C)(CC(C)C)NC(=O)[C@@H](NC(=O)[C@H](CO)NC(=O)[C@H](Cc1ccncc1)NC(=O)[C@H](CC(=O)O)NC(=O)[C@H](CO)NC(=O)[C@@H](NC(=O)C(C)(Cc1ccccc1F)NC(=O)[C@@H](NC(=O)CNC(=O)[C@H](CCC(=O)O)NC(=O)C(C)(C)NC(=O)[C@@H](N)Cc1ccc(O)cc1)[C@@H](C)O)[C@@H](C)O)[C@@H](C)CC)[C@@H](C)CC)C(=O)N[C@@H](CCC(=O)O)C(=O)NCC(=O)NCC(=O)N1CCC[C@H]1C(=O)N[C@@H](CO)C(=O)N[C@@H](CO)C(=O)NCC(=O)N[C@@H](C)C(=O)N1CCC[C@H]1C(=O)N1CCC[C@H]1C(=O)N1CCC[C@H]1C(=O)N[C@@H](CO)C(N)=O (stereo partly shown) [Example 251]	21.2	0.0249	0.081	0.0292	1.09
CC[C@H](C)[C@H](NC(=O)[C@H](CC(C)C)NC(=O)[C@H](Cc1ccc(O)cc1)NC(=O)[C@H](CCC(=O)O)NC(=O)[C@@H](NC(=O)[C@H](Cc1ccccc1)NC(=O)[C@H](C)NC(=O)C(C)(C)NC(=O)[C@H](CCC(N)=O)NC(=O)[C@H](C)NC(=O)[C@H](CCCCNC(=O)COCCOCCNC(=O)COCCOCCNC(=O)CC[C@H](NC(=O)CCCCCCCCCCCCCCCCCCC(=O)O)C(=O)O)NC(=O)[C@H](CO)NC(=O)[C@H](CC(=O)O)NC(=O)[C@H](CC(C)C)NC(=O)[C@](C)(CC(C)C)NC(=O)[C@@H](NC(=O)[C@H](CO)NC(=O)[C@H](Cc1ccc(O)cc1)NC(=O)[C@H](CC(=O)O)NC(=O)[C@H](CO)NC(=O)[C@@H](NC(=O)[C@H](Cc1ccccc1)NC(=O)[C@@H](NC(=O)CNC(=O)[C@H](CCC(=O)O)NC(=O)C(C)(C)NC(=O)[C@@H](N)Cc1ccc(O)cc1)[C@@H](C)O)[C@@H](C)O)[C@@H](C)CC)[C@@H](C)CC)C(=O)N[C@@H](CCC(=O)O)C(=O)NCC(=O)NCC(=O)N1CCC[C@H]1C(=O)N[C@@H](CO)C(=O)N[C@@H](CO)C(=O)NCC(=O)N[C@@H](C)C(=O)N1CCC[C@H]1C(=O)N1CCC[C@H]1C(=O)N1CCC[C@H]1C(=O)N[C@@H](CO)C(N)=O [Example 52] (H-Y[Aib]EGTFTSDYSI[αMeL]LDSK([AEEA-AEEA-γGlu-C20 diacid])AQ[Aib]AFIEYLIEGGPSSGAPPPS-NH2)	> 1100	0.0342	0.132	0.0997	5.81
